Experimental data reported in patent publication US12053480B2, “Methods and pharmaceutical compositions for treating peripheral demyelinating diseases” (INSERM (INSTITUT NATIONAL DE LA SANTE ET DE LA RECHERCHE …, priority 2015, dated 2024).

Experiments:
[1] = tested on: phospho-ERK1/2, phospho-p38, phospho-JNK and phospho-c-jun; test: Western blot of demyelination signaling pathways in sciatic nerve after crush or MJ; type: in vivo, mouse; settings: western blot 4 and 12 hours after crush; treated before crush
Experimental: (§1) TRO19622 drug (Tocris bioscience, Ref. 2906) was diluted in ethanol to 20 mM and then, the solution was diluted in sterile PBS to 20 μM. TRO19622 treatments were realized by 3 mg/kg intraperitoneal (IP) injections of 20 mM solution or by intra sciatic nerve injections of 2 μl of drug solution 2 μM using a Hamilton syringe or a glass needle in sterile conditions 30 minutes before multiphoton image acquisitions or immunohistochemistry and demyelination studies respectively. Methyl jasmonate drug (Sigma-Aldrich, Ref. 392707) was diluted in 1 ml of sterile PBS to 1M or 3M. Methyl jasmonate treatments were realized by intra sciatic nerve injections of 1 μl of drug solution using a glass needle and micromanipulator in sterile conditions following the same virus injections procedure (see in vivo virus injection in the sciatic nerve method) two hours before multiphoton image acquisition. […] All drug concentrations were previously evaluated by Bordet et al, 2007^5; Goldin et al, 2008^6; Sharov et al, 2007^7.

mSC mitochondria = test: Mitochondrial pH imaging (mito-SypHer) in mSC of mouse sciatic nerve; type: in vivo; settings: after nerve crush
Experimental: (§2) Mice were anesthetized with isoflurane inhalation and placed under a Stemi2000 microscope (Zeiss). Incision area was shaved and cleaned using betadine solution. After incision, the gluteus superficialis and biceps femoris muscles were separated to reveal the cavity traversed by the sciatic nerve. The nerve was lift out using spatula and a thin glass needle filled with viral solution (8 μl) was introduced into the nerve with a micromanipulator. This solution was injected over 30 min with short pressure pulses using a Picospritzer III (Parker Hannifin) coupled to a pulse generator. After injection, the nerve was replaced into the cavity, the muscles were readjusted, and the wound was closed using clips (for further details see Gonzalez et al., 2014^3).
as §1
First injected mouse was anesthetized with 5% of isoflurane a 1.5% of oxygen into the anesthesia system box (World Precision Instruments, Ref. EZ-B800) for 5 minutes. Anesthesia controls were realized^8. Then, mouse was placed in anesthesia mask and the incision area was shaved and cleaned with betadine and ethanol 70% solution. […]

[2] = tested on: myelinating Schwann cells; test: mSC demyelination morphology (confocal microscopy) four days after nerve crush; type: in vivo, mouse; settings: intraperitoneal or intranerve injections before and daily after nerve injury
Experimental: as §2, §1
Finally we also investigated the demyelination using typical defects induced in the cellular morphology of mSC. Nerves expressing control or VDAC1 shRNAs were crushed to induce demyelination and four days later, when demyelination is maximal, we analyzed the morphology of VDAC1-silenced mSC using confocal microscopy as described previously^19. mSC display long homogenous noodle-like morphology with a regular diameter but during demyelination, they acquire a heterogeneous morphology often alterning large structures (myelin ovoids) with thin processes and their extremities split in fine extensions.

CMT1A rats = test: Electrophysiology (CMAP, NCV) in CMT1A rats; type: in vivo, rat; settings: CMT1A rats treated daily for one month
Experimental: Standard electroneurography was performed before, during and after TRO 19622 drug treatment on CMT1A rats and diabetic mice that were anesthetized with 3% isoflurane. A pair of steel needle electrodes (AD Instruments, MLA1302, Oxford, UK) was placed subcutaneously along the nerve at sciatic notch (proximal stimulation). A second pair of electrodes was placed along the tibial nerve above the ankle (distal stimulation). Supramaximal square wave pulses lasting 10 ms and 1 mA for mice and 3.6 mA for rats were delivered using a PowerLab 26T (AD Instruments, Oxford, UK). Compound muscle action potential (CMAP) was recorded from the intrinsic foot muscles using steel electrodes. Both amplitudes and latencies of CMAP were determined. The distance between the two sites of stimulation was measured alongside the skin surface with fully extended legs, and nerve conduction velocities (NCVs) were calculated automatically from sciatic nerve latency measurements (for further details Fledrich et al., 2014^10).

[3] = tested on: phospho-ERK1/2, phospho-p38, phospho-JNK and phospho-c-jun; test: Western blot of MAPK demyelination pathways in CMT1A rats; type: in vivo, rat; settings: for activation of phospho-ERK1/2, phospho-p38, phospho-JNK and phospho-c-jun: after 15 and 30 days of treatment
Excerpt: While demyelinating diabetes peripheral neuropathy is a commonly acquired disease, demyelination is also the characteristic feature of a large number of inherited diseases called Charcot-Marie-Tooth diseases (CMT). We therefore sought to test whether the inhibition of VDAC1 function could prevent demyelination in these diseases. We choose CMT1A rat strain^42 as this is arguably the most representative animal model of Charcot-Marie-Tooth disease, mimicking CMT1A the most prevalent CMT in humans^10. Twelve weeks old CMT1A rats were daily treated with TRO19622 for 15 or 30 days and one day or two months after treatment, we analyzed MAPK demyelination pathways by western blot. […] However, these effects disappeared two months after treatment. Then we analyzed phospho-c-jun activation in mSC using immunohistochemistry. […] Next, we measured Schwann cell demyelination and g-ratio by toluidine blue staining on semi-thin sciatic nerve sections and on thin sections using electron microscopy.

CC(C)CCC[C@@H](C)[C@H]1CC[C@H]2[C@@H]3CCC4=C/C(=N\O)CC[C@]4(C)[C@H]3CC[C@]12C [TRO19622, (NZ)—N-[(8S,9S,10R,13R,14S,17R)-10,13-dimethyl-17-[(2R)-6-methylheptan-2-yl]-1,2,6,7,8,9,11,12,14,15,16,17-dodecahydrocyclopenta[a]phenanthren-3-ylidene]hydroxylamine]
increase in phospho-ERK1/2, phospho-p38, phospho-JNK and phospho-c-jun after nerve crush [1]: strongly reduced | changes induced by nerve crush in mitochondrial pH not abrogated (mSC mitochondria): 12% | number of demyelinating cells after nerve injury [2]: strongly reduced | CMAP amplitude (CMT1A rats): significant increase | nerve conduction velocity (CMT1A rats): significant increase | nerve conduction velocity (CMT1A rats; listed as TRO16922): largely improved | activation of phospho-ERK1/2, phospho-p38, phospho-JNK and phospho-c-jun [3]: significant down-regulation | activation of phospho-ERK1/2, phospho-p38, phospho-JNK and phospho-c-jun ([3]; listed as TRO16922): prevented | down-regulation of MAPK demyelination pathways after treatment stop ([3]; two months after treatment): disappeared
